Where a SMILES comes first, the peptide text is derived from it. Bridges are numbered along the chain shown (N, C = ends). [ ]: non-standard residue; d: D form. 1Nal = N[C@@H](Cc1cccc2ccccc12)C(=O)O; Nle = CCCC[C@H](N)C(=O)O
What was measured:
hMC4-R (HEK-293 cells) = molecular target: T1, hMC4-R (HEK-293 cells) (Homo sapiens, UniProt P32245); assay: cAMP functional assay for agonist/antagonist status, MC4-R; format: cell-based; conditions: for EC50: cAMP accumulation; for agonist/antagonist status as to MC4-R: cAMP assay; for efficacy relative to NDP-α-MSH, MC4-R: cAMP response ratio to NDP-α-MSH
T1 construct: expressed in transfected cells; host or cells: HEK-293
Method: (§1) Functional evaluation of peptides at melanocortin receptors was performed by measuring the accumulation of intracellular cAMP in HEK-293 cells expressing hMC3-R, hMC4-R or hMC5-R, and in B-16 mouse melanoma cells expressing MC1-R. Cells suspended in Earle's Balanced Salt Solution containing 10 mM HEPES (pH 7.5), 5 mM MgCl2, 1 mM glutamine, 0.5% albumin and 0.3 mM 3-isobutyl-1-methyl-xanthine, a phosphodiesterase inhibitor, were plated in 96 well plates at a density of 0.5×10^5 cells per well. Cells were incubated with the test peptides in the presence or absence of NDP-α-MSH for 1 hour at 37° C. cAMP levels in the cell lysates were measured using an EIA kit (Amersham). Data analysis and EC50 values were determined using nonlinear regression analysis with Prism Graph-Pad software.
(§2) The agonist/antagonist status with respect to MC1-R, MC4-R and MC5-R of certain peptides of the invention was determined. Antagonistic activity was determined by measuring the inhibition of α-MSH-induced or NDP-α-MSH-induced cAMP levels following exposure to the peptides as in the preceding descriptions.
Evaluation of the molecules to elicit a functional response in HEK-293 cells expressing hMC4-R for agonistic activity was done by measuring the accumulation of intracellular cAMP following treatment. Confluent HEK-293 cells over-expressing MC4-R receptors were detached by enzyme free cell suspension buffer. Cells were suspended in Earle's Balanced Salt Solution containing 10 mM HEPES (pH 7.5), 1 mM MgCl2, 1 mM glutamine, 0.5% albumin and 0.3 mM 3-isobutyl-1-methyl-[…]. The cells were plated in a 96 well plate at a density of 0.5×10^5 cells per well and pre-incubated for 60 minutes. The cells were then challenged with the test peptides dissolved in dimethylsulfoxide (DMSO) at a concentration range of 0.05-5000 nM in a total assay volume of 200 μL for 1 hour at 37° C. The concentration of DMSO was held at 1% in the assay mixture. NDP-α-MSH was used as the reference agonist. At the end of the incubation period the cells were disrupted by the addition of 50 μL lysis buffer from the cAMP EIA kit (Amersham). Complete rupture of the cells was ensured by pipetting the cells. cAMP levels in the cell lysates were measured after appropriate dilution using the EIA kit (Amersham) method. Data analysis and EC50 values were determined by using nonlinear regression analysis with the Prism Graph-Pad software.

hMC5-R = molecular target: T2, hMC5-R (Homo sapiens, UniProt P33032); assay: Competitive inhibition binding assay using [I125]-NDP-α-MSH, hMC5-R; conditions: radioligand [I125]-NDP-α-MSH, HEK-293 membranes; read-out: Ki (NDP-α-MSH) MC5-R
T2 construct: expressed in transfected cells; host or cells: HEK-293
Method: (§3) The assay tube also contained a chosen concentration of the test peptide of this invention, typically a 1 μM concentration, for determining its efficacy in inhibiting the binding of [I^125]NDP-α-MSH to the receptor.
(§4) The assay mixture was incubated for 60 minutes at 37° C., then filtered and the membranes washed three times with ice cold phosphate buffered saline. The filter was dried and counted in a gamma counter for remaining radioactivity bound to the membranes. 100% specific binding was defined as the difference in radioactivity (cpm) bound to cell membranes in the absence and presence of 1 μM NDP-α-MSH. […] Each assay was conducted in triplicate. The Ki (nM) of certain peptides of the invention were determined using similar assay protocols and testing peptides over a wider dose range.

MC3-R [1] = molecular target: T3, MC3-R (Homo sapiens, UniProt P41968); assay: Competitive inhibition Ki (AgRP), MC3-R; format: binding; conditions: AgRP as competing ligand
T3 construct: expressed in transfected cells; host or cells: HEK-293
Method: as §4

male Sprague-Dawley rats = assay: Penile erection induction in male rats; format: in vivo, rat
Method: The ability of peptides to induce penile erection (PE) in male rats was evaluated with selected peptides. Male Sprague-Dawley rats weighing 200-250 g were kept on a 12 hour on/off light cycle with food and water ad libitum. All behavioral studies were performed between 10 a.m. and 5 p.m. Groups of 4-8 rats were administered peptides at a variety of doses via an intravenous (IV) route, and may alternatively be administered peptide by an intracerebroventricular (ICV) route. Immediately after treatment, rats were placed into individual polystyrene cages (27 cm long, 16 cm wide, and 25 cm high) for behavioral observation. […] For rats administered peptide by an ICV routes, rats are observed for two hours.
Selected peptides were tested as in Example 5. Peptide was administered by IV routes, and used at dose levels ranging from 1 μg/kg to 1000 μg/kg.

MC4-R [2] = molecular target: T4, MC4-R (Homo sapiens, UniProt P32245); assay: Competitive inhibition binding assay using [I125]-NDP-α-MSH, hMC4-R; conditions: radioligand [I125]-NDP-α-MSH, HEK-293 membranes; read-out: Ki (NDP-α-MSH) MC4-R
T4 construct: expressed in transfected cells; host or cells: HEK-293
Method: as §3, §4

hMC3-R (HEK-293 cells) = molecular target: T5, hMC3-R (HEK-293 cells) (Homo sapiens, UniProt P41968); assay: cAMP functional assay for agonist/antagonist status, MC3-R; format: cell-based; conditions: for EC50: cAMP accumulation; for agonist/antagonist status as to MC3-R: cAMP assay; for efficacy relative to NDP-α-MSH, MC3-R: cAMP response ratio to NDP-α-MSH
T5 construct: expressed in transfected cells; host or cells: HEK-293
Method: as §1, §2

MC3-R [3] = molecular target: T3, MC3-R; assay: Competitive inhibition binding assay using [I125]-NDP-α-MSH, hMC3-R; conditions: radioligand [I125]-NDP-α-MSH, HEK-293 membranes; read-out: Ki (NDP-α-MSH) MC3-R
Method: as §3, §4

MC4-R [4] = molecular target: T4, MC4-R; assay: Competitive inhibition Ki (AgRP), MC4-R; format: binding; conditions: AgRP as competing ligand
[5] = molecular target: T6, MC1-R (B-16 mouse melanoma cells) (Mus musculus, UniProt Q01727); assay: cAMP functional assay for agonist/antagonist status, MC1-R; format: cell-based; conditions: for EC50: cAMP accumulation; for agonist/antagonist status as to MC1-R: cAMP assay; for efficacy relative to NDP-α-MSH, MC1-R: cAMP response ratio to NDP-α-MSH
T6 construct: B-16 mouse melanoma cells (containing MC1-R); endogenous in cells; host or cells: B-16 mouse melanoma cells
Method: Data analysis and EC50 values were determined using nonlinear regression analysis with Prism Graph-Pad software.
The agonist/antagonist status with respect to MC1-R, MC4-R and MC5-R of certain peptides of the invention was determined.

[6] = 1000 μg/kg IV, groups of 6 rats, one hour observation
[7] = peak dose 300 μg/kg IV, groups of 6 rats

T5 sequence (P41968 whole entry): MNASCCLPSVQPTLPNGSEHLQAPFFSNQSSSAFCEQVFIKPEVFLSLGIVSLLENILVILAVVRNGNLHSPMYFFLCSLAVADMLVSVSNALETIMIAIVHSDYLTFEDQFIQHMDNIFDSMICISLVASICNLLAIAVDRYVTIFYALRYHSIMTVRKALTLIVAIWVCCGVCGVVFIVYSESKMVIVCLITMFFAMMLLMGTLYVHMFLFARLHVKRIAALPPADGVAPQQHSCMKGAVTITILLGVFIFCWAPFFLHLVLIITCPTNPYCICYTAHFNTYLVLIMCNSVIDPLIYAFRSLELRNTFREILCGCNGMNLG
T3 sequence (P41968 whole entry): as above
T6 sequence (Q01727 whole entry): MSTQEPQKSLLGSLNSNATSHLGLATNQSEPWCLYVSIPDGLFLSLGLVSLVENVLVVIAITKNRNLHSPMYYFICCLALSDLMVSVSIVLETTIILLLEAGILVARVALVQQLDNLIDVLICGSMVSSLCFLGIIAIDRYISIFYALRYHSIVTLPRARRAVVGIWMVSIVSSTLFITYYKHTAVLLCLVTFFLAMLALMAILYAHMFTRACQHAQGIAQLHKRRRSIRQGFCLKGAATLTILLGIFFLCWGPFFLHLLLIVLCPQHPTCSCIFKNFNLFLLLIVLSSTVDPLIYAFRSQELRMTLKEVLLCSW
T4 sequence (P32245 whole entry): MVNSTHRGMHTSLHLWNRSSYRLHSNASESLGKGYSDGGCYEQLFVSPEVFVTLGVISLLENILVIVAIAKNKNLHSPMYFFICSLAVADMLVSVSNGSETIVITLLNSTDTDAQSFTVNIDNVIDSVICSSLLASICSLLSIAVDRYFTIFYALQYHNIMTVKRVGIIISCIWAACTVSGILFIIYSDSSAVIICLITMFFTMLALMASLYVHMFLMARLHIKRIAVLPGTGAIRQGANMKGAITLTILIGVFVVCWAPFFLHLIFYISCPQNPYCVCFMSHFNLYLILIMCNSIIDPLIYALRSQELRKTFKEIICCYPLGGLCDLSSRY
T1 sequence (P32245 whole entry): as above
T2 sequence (P33032 whole entry): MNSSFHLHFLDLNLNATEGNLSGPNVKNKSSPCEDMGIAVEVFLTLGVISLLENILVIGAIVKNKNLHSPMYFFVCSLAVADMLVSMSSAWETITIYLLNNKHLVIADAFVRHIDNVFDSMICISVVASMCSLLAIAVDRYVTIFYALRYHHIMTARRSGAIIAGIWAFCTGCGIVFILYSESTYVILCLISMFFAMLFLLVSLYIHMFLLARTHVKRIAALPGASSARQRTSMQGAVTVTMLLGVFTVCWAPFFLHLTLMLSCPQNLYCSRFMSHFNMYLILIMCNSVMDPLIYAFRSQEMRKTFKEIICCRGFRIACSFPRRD

SMILES | EC50 (hMC4-R (HEK-293 cells)) | agonist/antagonist status as to MC4-R (hMC4-R (HEK-293 cells)) | Ki (hMC5-R) | Ki (MC3-R [1]) | rats exhibiting at least one PE (male Sprague-Dawley rats; [6]) | Ki (MC4-R [2]) | EC50 (hMC3-R (HEK-293 cells)) | agonist/antagonist status as to MC3-R (hMC3-R (HEK-293 cells)) | Ki (MC3-R [3]) | Ki (MC4-R [4]) | efficacy relative to NDP-α-MSH, MC4-R (hMC4-R (HEK-293 cells)) | EC50 [5] | agonist/antagonist status as to MC1-R [5] | efficacy relative to NDP-α-MSH, MC1-R [5] | efficacy relative to NDP-α-MSH, MC3-R (hMC3-R (HEK-293 cells)) | PE effect at 300 μg/kg compared with 1000 μg/kg (male Sprague-Dawley rats; peak dose 300 μg/kg IV) | mean PEs per rat (male Sprague-Dawley rats; [7]) | rats exhibiting at least one PE (male Sprague-Dawley rats; [7])
CCCC[C@H](NC(C)=O)C(=O)N[C@H]1CC(=O)NCCCC[C@@H](C(=O)NCC)NC(=O)[C@H](Cc2c[nH]c3ccccc23)NC(=O)[C@H](CCCNC(=N)N)NC(=O)[C@@H](Cc2ccccc2)NC(=O)[C@H](Cc2c[nH]cn2)NC1=O [Example 7, Ac-Nle-cyclo(-Asp-His-D-Phe-Arg-Trp-Lys)-NH—CH2—CH3] | 0.6 nM | agonist (response ratio compared to NDP-α-MSH of 0.7 and above were classified as full agonists) | 5 nM | 9 nM | 100% | 0.34 nM | 3 nM | agonist (response ratio compared to NDP-α-MSH of 0.7 and above were classified as full agonists) | 11 nM | 0.15 nM | – | – | – | – | – | – | – | –
CCCC[C@H](NC(C)=O)C(=O)N[C@H]1CC(=O)NCCCC[C@@H](C(=O)N(C)C)NC(=O)[C@H](Cc2c[nH]c3ccccc23)NC(=O)[C@H](CCCNC(=N)N)NC(=O)[C@@H](Cc2ccccc2)NC(=O)[C@H](Cc2c[nH]cn2)NC1=O [Example 8, Ac-Nle-cyclo(-Asp-His-D-Phe-Arg-Trp-Lys)-N(CH3)2] | 0.2 nM | agonist (response ratio compared to NDP-α-MSH of 0.7 and above were classified as full agonists) | 7 nM | – | 100% | 0.27 nM | 17 nM | agonist (response ratio compared to NDP-α-MSH of 0.7 and above were classified as full agonists) | 8 nM | 0.5 nM | – | – | – | – | – | – | – | –
CCCC[C@H](NC(C)=O)C(=O)N[C@H]1CC(=O)NCCCC[C@@H](C(=O)NCC)NC(=O)[C@H](Cc2cccc3ccccc23)NC(=O)[C@H](CCCNC(=N)N)NC(=O)[C@@H](Cc2ccccc2)NC(=O)[C@H](Cc2c[nH]cn2)NC1=O [Example 9, Ac-Nle-cyclo(-Asp-His-D-Phe-Arg-Nal 1-Lys)-NH—CH2—CH3] | – | partial agonist (Peptides with a ratio from 0.1 to 0.7 were classified as partial agonists) | – | – | 100% | – | 208 nM | agonist (response ratio compared to NDP-α-MSH of 0.7 and above were classified as full agonists) | – | 7 nM | 0.6 | 8 nM | partial agonist (Peptides with a ratio from 0.1 to 0.7 were classified as partial agonists) | 0.6 | 1.0 | – | – | –
CCCC[C@H](NC(C)=O)C(=O)N[C@H]1CC(=O)NCCCC[C@@H](C(=O)N(C)C)NC(=O)[C@H](Cc2cccc3ccccc23)NC(=O)[C@H](CCCNC(=N)N)NC(=O)[C@@H](Cc2ccccc2)NC(=O)[C@H](Cc2c[nH]c3ccccc23)NC1=O [Example 10, Ac-Nle-cyclo(-Asp-Trp-D-Phe-Arg-Nal 1-Lys)-N(CH3)2] (Ac-[Nle]DW[dF]R[1Nal]K-NMe2; lactam 2-7 (inferred)) | – | agonist (response ratio compared to NDP-α-MSH of 0.7 and above were classified as full agonists) | – | > 1000 nM | – | – | – | inactive | – | 50 nM | 0.8 | 2300 nM | agonist (response ratio compared to NDP-α-MSH of 0.7 and above were classified as full agonists) | 1.1 | – | – | – | –
CCCC[C@H](NC(C)=O)C(=O)N[C@H]1CC(=O)NCCCC[C@@H](C(=O)N(C)C)NC(=O)[C@H](Cc2cccc3ccccc23)NC(=O)[C@H](CCCNC(=N)N)NC(=O)[C@@H](Cc2ccccc2)NC(=O)[C@H](Cc2c[nH]cn2)NC1=O [Example 11, Ac-Nle-cyclo(-Asp-His-D-Phe-Arg-Nal 1-Lys)-N(CH3)2] | – | agonist (response ratio compared to NDP-α-MSH of 0.7 and above were classified as full agonists) | – | > 1000 nM | 100% | – | 394 nM | agonist (response ratio compared to NDP-α-MSH of 0.7 and above were classified as full agonists) | – | 10 nM | 0.7 | 15 nM | agonist (response ratio compared to NDP-α-MSH of 0.7 and above were classified as full agonists) | 0.8 | 1.1 | the same | – | –
CCNC(=O)[C@@H]1CCCCNC(=O)C[C@H](NC(C)=O)C(=O)N[C@@H](Cc2c[nH]cn2)C(=O)N[C@H](Cc2ccccc2)C(=O)N[C@@H](CCCNC(=N)N)C(=O)N[C@@H](Cc2c[nH]c3ccccc23)C(=O)N1 [Example 12, Ac-cyclo(-Asp-His-D-Phe-Arg-Trp-Lys)-NH—CH2—CH3] | – | partial agonist (Peptides with a ratio from 0.1 to 0.7 were classified as partial agonists) | – | 457 nM | – | – | 283 nM | agonist (response ratio compared to NDP-α-MSH of 0.7 and above were classified as full agonists) | – | 11 nM | 0.6 | 64 nM | partial agonist (Peptides with a ratio from 0.1 to 0.7 were classified as partial agonists) | 0.6 | 1.0 | – | 2.5 | 83%
